Laboratory results taken from patent US12247033B2, “Triazole-substituted imidazo[1,2-a]pyrimidines as cGAS inhibitors” (GlaxoSmithKline Intellectual Property Development Limited, priority 2022, dated 2025).
pIC50: −log10 of the molar value. Structures can show the parent of a compound that is named as a salt.

target: human CGAS (157-522) (Homo sapiens, UniProt Q8N884); assay: biochemical
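Further: biochemical enzyme reaction, 2′3′-cGAMP product measured by RapidFire mass spectrometry (MRM) normalised to c-di-UMP internal standard, inhibition of product formation relative to high and low control wells.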
Procedure: Compounds were serially diluted 2, 3, or 4-fold in neat DMSO to generate 11-point dose response curves and then 250 nL compound or DMSO solution was transferred to Greiner 384-well V-bottom assay plates (Catalog #781280) using an Echo acoustic dispenser (Labcyte). A solution of 150 μM ATP, 150 μM GTP, 20 μM pppGpA (GTP-2′5′-AMP, custom synthesis from ChemGenes), and 10 μg/mL sheared salmon sperm DNA (Sigma, Catalog #D1626) in assay buffer (20 mM Trizma, pH 7.5, 10 mM magnesium chloride, 0.3 mM CHAPS, and 0.01% (w/v) bovine serum albumin) was added to columns 1-17, 19-24 of the plate at 12.5 μL/well using a Combi liquid handler (ThermoFisher). A 12.5 μL/well low control solution containing 150 μM ATP, 150 μM GTP, 20 μM pppGpA in assay buffer was added to column 18 using the Combi. A 12.5 μL/well solution of 10-100 nM human CGAS (157-522) in assay buffer was then added to all wells of the plate using the Combi. […] Reactions were quenched by added 50 μL/well of 0.5% (v/v) trifluoroacetic acid (TFA) in mass spectrometry grade deionized water containing 5 μM cyclic-di-UMP (ci-di-UMP; Invivogen Catalog #tlrl-cdu) as the internal standard (IS). Plates were centrifuged for 1 min and then quenched reactions were analyzed using a RF-MS 300 system operating in a Multiple Reaction Monitoring (MRM) detection mode.
Samples (10 μL injection volume) were passed over a silica C18/type C solid phase extraction (SPE) cartridge for analyte (2′3′-cyclic guanosine monophosphate adenosine monophosphate (2′3′-cGAMP), product of biochemical reaction)/pppGpA/c-di-UMP IS adsorption. Adsorbed samples were desalted for 3000 ms using a 100% water eluent A/desalting solution. Afterwards, desalted samples were eluted using a 0.5% TFA in 20%/80% acetonitrile/water eluent B/elution solution directly into either a Sciex 4000, 5000 or 5500 triple quadrupole mass spectrometer (QQQ-MS) for MRM analyte/IS detection. QQQ-MS detection conditions were as follow: scan type: MRM; curtain (CUR) gas: 30 psi; nebulizer (GS1) gas: 50 psi; drying (GS2) gas: 60 psi; collisionally activated dissociation (CAD) gas: 12 relative setting; precursor ion (Q1) masses: 2′3′-cGAMP: m/z 675.1 Da/pppGpA: m/z 853.0 Da/c-di-UMP: m/z 613.1 Da; fragment ion (Q3) masses: 2′3′-cGAMP: m/z 524.1 Da/pppGpA: m/z 702.0 Da/c-di-UMP: 307.1 Da; declustering potentials (DPs): 2′3′-cGAMP: +81 V/pppGpA: +85 V/c-di-UMP: +85 V; entrance potential: +10 V (all analytes); collision energies (CEs): 2′3′-cGAMP: +33 V/pppGpA: +36 V/c-di-UMP: +35 V; collision cell exit potential (CXP): +10 V (all analytes); interface heater (Sciex 4000/5000 only): on; Q1 resolution: unit (all analyte); Q3 resolution: unit (all analytes). The area under the curve (AUC) for all analytes was obtained using the RapidFire Integrator software application to calculate AUC-2′3′-cGAMP/AUC-c-di-UMP intensity ratio. Percent product formation was calculated by comparison to column 6 (high control)/column 18 (low control) responses. The % product inhibition was calculated as follows:
[formula] where A is the minimum response, B is the maximum response, C is the log10*XC50, D is the slope factor, and x is the log10 compound concentration [M] in ABASE XE.

human CGAS (157-522), sequence (Q8N884 157-522): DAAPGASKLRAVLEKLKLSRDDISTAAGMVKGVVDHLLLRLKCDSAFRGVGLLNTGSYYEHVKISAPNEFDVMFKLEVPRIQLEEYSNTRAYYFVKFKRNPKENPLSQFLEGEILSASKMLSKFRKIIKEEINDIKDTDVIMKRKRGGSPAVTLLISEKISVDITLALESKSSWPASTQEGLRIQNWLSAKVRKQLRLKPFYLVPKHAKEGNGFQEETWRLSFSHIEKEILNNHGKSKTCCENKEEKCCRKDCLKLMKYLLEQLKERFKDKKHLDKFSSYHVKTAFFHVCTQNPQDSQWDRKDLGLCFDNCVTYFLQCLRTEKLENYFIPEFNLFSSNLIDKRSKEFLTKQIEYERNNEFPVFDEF

Going from FC(F)(F)c1n[nH]c(-c2nc3ncccn3c2-c2cn[nH]c2)n1 [Example 11, 5-[3-(1H-pyrazol-4-yl)imidazo[1,2-a]pyrimidin-2-yl]-3-(trifluoromethyl)-1H-1,2,4-triazole, trifluoroacetic acid salt] to Cn1cc(-c2c(-c3nc(C(F)(F)F)n[nH]3)nc3ncccn23)cn1 [Example 131, 5-[3-(1-methyl-1H-pyrazol-4-yl)imidazo[1,2-a]pyrimidin-2-yl]-3-(trifluoromethyl)-1H-1,2,4-triazole], the pIC50 falls from 8.00 to 4.80 (3.20 log units). The first is the more potent here.

Going from CN1Cc2cn3c(-c4cnc[nH]4)c(-c4nc(C(F)(F)F)n[nH]4)nc3nc2C(F)(F)C1 [Example 18, 13,13-difluoro-6-(1H-imidazol-5-yl)-11-methyl-5-[3-(trifluoromethyl)-1H-1,2,4-triazol-5-yl]-2,4,7,11-tetraazatricyclo[7.4.0.0^3,7]trideca-1,3,5,8-tetraene, trifluoroacetic acid salt] to FC(F)(F)c1n[nH]c(-c2nc3nc4c(cn3c2-c2cnc[nH]2)CCO4)n1 [Example 48, 12-(1H-imidazol-5-yl)-11-[3-(trifluoromethyl)-1H-1,2,4-triazol-5-yl]-6-oxa-1,8,10-triazatricyclo[7.3.0.0^3,^7]dodeca-2,7,9,11-tetraene], the pIC50 rises from 7.90 to 8.70 (0.80 log units).

First: CS(=O)(=O)Oc1cnc2nc(-c3nc(C(F)(F)F)n[nH]3)c(-c3cnc[nH]3)n2c1 [Example 20, 3-(1H-Imidazol-5-yl)-2-(3-(trifluoromethyl)-1H-1,2,4-triazol-5-yl)imidazo[1,2-a]pyrimidin-6-yl methanesulfonate]
Second: Cc1cnc2nc(-c3nc(C(F)(F)F)n[nH]3)c(-c3cnc[nH]3)n2c1 [Example 54, 5-[3-(1H-imidazol-5-yl)-6-methylimidazo[1,2-a]pyrimidin-2-yl]-3-(trifluoromethyl)-1H-1,2,4-triazole]
The pIC50 of the first is 0.50 log units higher: 8.70 for the first, 8.20 for the second.

COC(=O)c1ccn2c(-c3cn[nH]c3)c(-c3nc(Br)n[nH]3)nc2n1 [Example 35, methyl 2-(3-bromo-1H-1,2,4-triazol-5-yl)-3-(1H-pyrazol-4-yl)imidazo[1,2-a]pyrimidine-7-carboxylate] and COC(=O)c1ccn2c(-c3c[nH]cn3)c(-c3nc(Br)n[nH]3)nc2n1 [Example 36, methyl 2-(3-bromo-1H-1,2,4-triazol-5-yl)-3-(1H-imidazol-4-yl)imidazo[1,2-a]pyrimidine-7-carboxylate] are the same in pIC50: 8.50 for the first, 8.50 for the second.

Compared with Brc1n[nH]c(-c2nc3ncccn3c2-c2c[nH]cn2)n1 [Example 37, 3-bromo-5-[3-(1H-imidazol-4-yl)imidazo[1,2-a]pyrimidin-2-yl]-1H-1,2,4-triazole, trifluoroacetic acid salt], CC(C)Oc1ccn2c(-c3c[nH]cn3)c(-c3nc(Br)n[nH]3)nc2n1 [Example 40, 3-bromo-5-[3-(1H-imidazol-4-yl)-7-(propan-2-yloxy)imidazo[1,2-a]pyrimidin-2-yl]-1H-1,2,4-triazole] is 0.90 log units lower in pIC50: 8.50 for the first, 7.60 for the second.

Compared with FC(F)(F)c1n[nH]c(-c2nc3nc(N4CCOCC4)ccn3c2-c2c[nH]cn2)n1 [Example 42, 4-[3-(1H-imidazol-4-yl)-2-[3-(trifluoromethyl)-1H-1,2,4-triazol-5-yl]imidazo[1,2-a]pyrimidin-7-yl]morpholine], O=C(O)c1ccn2c(-c3c[nH]cn3)c(-c3nc(C(F)(F)F)n[nH]3)nc2n1 [Example 102, 3-(1H-imidazol-4-yl)-2-[3-(trifluoromethyl)-1H-1,2,4-triazol-5-yl]imidazo[1,2-a]pyrimidine-7-carboxylic acid] is 0.90 log units higher in pIC50: 7.60 for the first, 8.50 for the second. The second is the more potent here.

First: CN(C)c1ccn2c(-c3cnc[nH]3)c(-c3nc(C(F)(F)F)n[nH]3)nc2n1 [Example 43]
Second: Cc1cn2c(-c3cnc[nH]3)c(-c3nc(C(F)(F)F)n[nH]3)nc2nc1C [Example 52, 5-[3-(1H-imidazol-5-yl)-6,7-dimethylimidazo[1,2-a]pyrimidin-2-yl]-3-(trifluoromethyl)-1H-1,2,4-triazole]
The pIC50 of the first is 0.50 log units lower: 7.80 for the first, 8.30 for the second. The second is the more potent here.

Going from FC(F)(F)c1n[nH]c(-c2nc3ncc(Cl)cn3c2-c2cnc[nH]2)n1 [Example 45, 5-[6-chloro-3-(1H-imidazol-5-yl)imidazo[1,2-a]pyrimidin-2-yl]-3-(trifluoromethyl)-1H-1,2,4-triazole] to Oc1cnc2nc(-c3nc(C(F)(F)F)n[nH]3)c(-c3cnc[nH]3)n2c1 [Example 60, 3-(1H-imidazol-5-yl)-2-[3-(trifluoromethyl)-1H-1,2,4-triazol-5-yl]imidazo[1,2-a]pyrimidin-6-ol], the pIC50 rises from 8.50 to 9.10 (0.60 log units). The second is the more potent here.

First: CCc1nc2nc(-c3nc(C(F)(F)F)n[nH]3)c(-c3cnc[nH]3)n2cc1C [Example 47, 5-[7-ethyl-3-(1H-imidazol-5-yl)-6-methylimidazo[1,2-a]pyrimidin-2-yl]-3-(trifluoromethyl)-1H-1,2,4-triazole]
Second: COc1nc2nc(-c3nc(C(F)(F)F)n[nH]3)c(-c3cnc[nH]3)n2cc1C [Example 59, 5-[3-(1H-imidazol-5-yl)-7-methoxy-6-methylimidazo[1,2-a]pyrimidin-2-yl]-3-(trifluoromethyl)-1H-1,2,4-triazole]
The pIC50 of the first is 0.90 log units higher: 8.80 for the first, 7.90 for the second. The first is the more potent here.

COc1cc(OC)n2c(-c3c[nH]cn3)c(-c3nc(C(F)(F)F)n[nH]3)nc2n1 [Example 49, 5-[3-(1H-imidazol-4-yl)-5,7-dimethoxyimidazo[1,2-a]pyrimidin-2-yl]-3-(trifluoromethyl)-1H-1,2,4-triazole] and COc1cn2c(-c3c[nH]cn3)c(-c3nc(C(F)(F)F)n[nH]3)nc2nc1C [Example 51, 5-[3-(1H-imidazol-4-yl)-6-methoxy-7-methylimidazo[1,2-a]pyrimidin-2-yl]-3-(trifluoromethyl)-1H-1,2,4-triazole] are within 0.2 log units of each other in pIC50: 7.90 for the first, 8.00 for the second.

OC1CCN(c2ccn3c(-c4cnc[nH]4)c(-c4nc(C(F)(F)F)n[nH]4)nc3n2)C1 (centres unmarked) [Example 53, 1-[3-(1H-imidazol-5-yl)-2-[3-(trifluoromethyl)-1H-1,2,4-triazol-5-yl]imidazo[1,2-a]pyrimidin-7-yl]pyrrolidin-3-ol] and OC1CCCN(c2ccn3c(-c4cnc[nH]4)c(-c4nc(C(F)(F)F)n[nH]4)nc3n2)C1 (centres unmarked) [Example 56, 1-[3-(1H-imidazol-5-yl)-2-[3-(trifluoromethyl)-1H-1,2,4-triazol-5-yl]imidazo[1,2-a]pyrimidin-7-yl]piperidin-3-ol] are within 0.2 log units of each other in pIC50: 7.80 for the first, 7.70 for the second.

O=C(O)Cc1cnc2nc(-c3nc(C(F)(F)F)n[nH]3)c(-c3cnc[nH]3)n2c1 [Example 92, 2-[3-(1H-imidazol-5-yl)-2-[3-(trifluoromethyl)-1H-1,2,4-triazol-5-yl]imidazo[1,2-a]pyrimidin-6-yl]acetic acid] and CC(O)C(O)COCc1cnc2nc(-c3nc(C(F)(F)F)n[nH]3)c(-c3cnc[nH]3)n2c1 (centres unmarked) [Example 112, 1-{[3-(1H-imidazol-5-yl)-2-[3-(trifluoromethyl)-1H-1,2,4-triazol-5-yl]imidazo[1,2-a]pyrimidin-6-yl]methoxy}butane-2,3-diol] are within 0.2 log units of each other in pIC50: 8.00 for the first, 8.10 for the second.

Going from CC(C)(C)CNC(=O)c1cnc2nc(-c3nc(C(F)(F)F)n[nH]3)c(-c3cnc[nH]3)n2c1 [Example 94, N-(2,2-dimethylpropyl)-3-(1H-imidazol-5-yl)-2-[3-(trifluoromethyl)-1H-1,2,4-triazol-5-yl]imidazo[1,2-a]pyrimidine-6-carboxamide] to FC(F)(F)c1n[nH]c(-c2nc3ncc(COc4cccnc4)cn3c2-c2cnc[nH]2)n1 [Example 119, 3-{[3-(1H-imidazol-5-yl)-2-[3-(trifluoromethyl)-1H-1,2,4-triazol-5-yl]imidazo[1,2-a]pyrimidin-6-yl]methoxy}pyridine], the pIC50 rises from 5.80 to 6.80 (1.00 log units). The second is the more potent here.

Compared with FC(F)(F)c1ccn2c(-c3cnc[nH]3)c(-c3ncn[nH]3)nc2n1 [Example 97, 5-[3-(1H-imidazol-5-yl)-7-(trifluoromethyl)imidazo[1,2-a]pyrimidin-2-yl]-1H-1,2,4-triazole], Cc1n[nH]c(-c2nc3nc(C(F)(F)F)ccn3c2-c2cnc[nH]2)n1 [Example 98, 5-[3-(1H-imidazol-5-yl)-7-(trifluoromethyl)imidazo[1,2-a]pyrimidin-2-yl]-3-methyl-1H-1,2,4-triazole] is 1.00 log units higher in pIC50: 5.10 for the first, 6.10 for the second.

[O-][S+]1CCc2nc3nc(-c4nc(C(F)(F)F)n[nH]4)c(-c4cnc[nH]4)n3cc2C1 (centres unmarked) [Example 116, 6-(1H-imidazol-5-yl)-5-[3-(trifluoromethyl)-1H-1,2,4-triazol-5-yl]-11λ^4-thia-2,4,7-triazatricyclo[7.4.0.0^3,^7]trideca-1,3,5,8-tetraen-11-one] and FC(F)(F)c1n[nH]c(-c2nc3ncc(CCN4CCOCC4)cn3c2-c2cnc[nH]2)n1 [Example 122, 4-{2-[3-(1H-imidazol-5-yl)-2-[3-(trifluoromethyl)-1H-1,2,4-triazol-5-yl]imidazo[1,2-a]pyrimidin-6-yl]ethyl}morpholine] are the same in pIC50: 8.30 for the first, 8.30 for the second.

Compared with CN1CCC(Oc2ccn3c(-c4c[nH]cn4)c(-c4nc(C(F)(F)F)n[nH]4)nc3n2)CC1 [Example 132, 4-{[3-(1H-imidazol-4-yl)-2-[3-(trifluoromethyl)-1H-1,2,4-triazol-5-yl]imidazo[1,2-a]pyrimidin-7-yl]oxy}-1-methylpiperidine], Cc1cn(C)c(COCc2cnc3nc(-c4nc(C(F)(F)F)n[nH]4)c(-c4c[nH]cn4)n3c2)n1 [Example 158, 5-(6-{[(1,4-dimethyl-1H-imidazol-2-yl)methoxy]methyl}-3-(1H-imidazol-4-yl)imidazo[1,2-a]pyrimidin-2-yl)-3-(trifluoromethyl)-1H-1,2,4-triazole] is 0.70 log units higher in pIC50: 7.40 for the first, 8.10 for the second. The second is the more potent here.
